{"source": "paper PMC12649549", "about": "“Sequence Permutation Generated Lysine and Tryptophan-Rich Antimicrobial Peptides with Enhanced Therapeutic Index” (Antibiotics, 2025)", "key": {"Gram-negative bacteria": {"system": "Gram-negative bacteria", "test": "Geometric mean MIC and therapeutic index, Gram-negative bacteria", "format": "cell-based", "settings": "Gram-negative bacteria", "in_short": "(§1)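 Read-out is the MIC by CLSI broth microdilution, summarised as a geometric mean across strains, with TI defined as HC10 on human red cells over that GM. Media were MH broth and LYM broth adjusted for salt, Mg2+ and pH; peptides ran 0.78–50 µg/mL.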"}, "[1]": {"system": "Both Gram-positive and -negative bacteria", "test": "Geometric mean MIC, therapeutic index and fold changes of MIC, whole panel of strains", "format": "cell-based", "in_short": "as §1"}, "[2]": {"system": "A. baumannii 14B00100 (Acinetobacter sp., BCRC number 14B0100)", "in_short": "(§2)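 Broth microdilution per CLSI in Müller-Hinton broth and modified LYM broth (pH 7.4; variants with 50–300 mM NaCl, 0.5–2.5 mM MgCl2, or pH 6.5–4.5). Inoculum 5 × 10^5 CFU/mL; peptides tested at 0.78–50 µg/mL final. MIC read; three independent repeats.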"}, "[3]": {"system": "A. baumannii 14B0091 (Acinetobacter sp., BCRC number 14B0091)", "in_short": "as §2"}, "S. aureus ATCC 33593": {"system": "S. aureus ATCC 33593", "in_short": "as §2"}, "S. aureus ATCC 33591": {"system": "S. aureus ATCC 33591", "in_short": "as §2"}, "[4]": {"system": "Escherichia coli (ATCC 25922)", "in_short": "as §2"}, "[5]": {"system": "Pseudomonas aeruginosa Migula (ATCC 27853)", "in_short": "as §2"}, "[6]": {"settings": "LYM broth, 0 mM NaCl, 16 h, 37 °C"}, "[7]": {"settings": "LYM broth, 50 mM NaCl, 16 h, 37 °C"}, "[8]": {"settings": "LYM broth, 100 mM NaCl, 16 h, 37 °C"}, "[9]": {"settings": "LYM broth, 200 mM (NaCl), 16 h, 37 °C"}, "[10]": {"settings": "LYM broth, 300 mM (NaCl), 16 h, 37 °C"}, "[11]": {"settings": "MH broth, 5 × 10^5 CFU/mL, 16 h, 37 °C, repeated three times"}}, "note": "Like-named read-outs stand apart in the source and are kept apart here."}
{"substance": "Ac-WRKWLKWLAKKKK-NH2 [Peptide W5K02]", "values": [{"measurement": "GM G− (geometric mean of the MIC values)", "setting": "Gram-negative bacteria; MH broth, MIC >50 µg/mL counted as 100 µg/mL", "value": 7.2, "unit": "µg/mL"}, {"measurement": "Therapeutic Index (TI) G−", "setting": "Gram-negative bacteria; HC10/GM", "value": 2.3}, {"measurement": "GM G−/+ (geometric mean of the MIC values)", "setting": "[1]; Both Gram-positive and -negative bacteria, MH broth, MIC >50 µg/mL counted as 100 µg/mL", "value": 12.5, "unit": "µg/mL"}, {"measurement": "Therapeutic Index (TI) G−/+", "setting": "[1]; HC10/GM, both Gram-positive and -negative bacteria", "value": 1.3}, {"measurement": "weakening of bactericidal efficacy (MIC)", "setting": "[1]; LYM broth, 2.5 mM MgCl2", "value": 4, "unit": "fold"}, {"measurement": "folds higher MIC values than W5KA9W", "setting": "[1]; MH broth, in most bacteria strains", "value": "2–8 fold"}, {"measurement": "MIC", "setting": "[2]; [6]", "value": 1.56, "unit": "µg/mL"}, {"measurement": "MIC", "setting": "[2]; LYM broth, 0.5 mM MgCl2", "value": 1.56, "unit": "µg/mL"}, {"measurement": "MIC", "setting": "[2]; LYM broth, 1.5 mM MgCl2", "value": 1.56, "unit": "µg/mL"}, {"measurement": "MIC", "setting": "[2]; LYM broth, 2.5 mM MgCl2", "value": 3.13, "unit": "µg/mL"}, {"measurement": "MIC", "setting": "[2]; [7]", "value": 1.56, "unit": "µg/mL"}, {"measurement": "MIC", "setting": "[2]; [8]", "value": 1.56, "unit": "µg/mL"}, {"measurement": "MIC", "setting": "[2]; [9]", "value": 3.13, "unit": "µg/mL"}, {"measurement": "MIC", "setting": "[2]; [10]", "value": 6.25, "unit": "µg/mL"}, {"measurement": "MIC", "setting": "[2]; LYM broth, pH 4.5", "value": 1.56, "unit": "µg/mL"}, {"measurement": "MIC", "setting": "[2]; LYM broth, pH 5.5", "value": 1.56, "unit": "µg/mL"}, {"measurement": "MIC", "setting": "[2]; LYM broth, pH 6.5", "value": 1.56, "unit": "µg/mL"}, {"measurement": "MIC", "setting": "[2]; [11]", "value": 6.25, "unit": "µg/mL"}, {"measurement": "MIC", "setting": "[3]; [6]", "value": 1.56, "unit": "µg/mL"}, {"measurement": "MIC", "setting": "[3]; LYM broth, 0.5 mM MgCl2", "value": 1.56, "unit": "µg/mL"}, {"measurement": "MIC", "setting": "[3]; LYM broth, 1.5 mM MgCl2", "value": 1.56, "unit": "µg/mL"}, {"measurement": "MIC", "setting": "[3]; LYM broth, 2.5 mM MgCl2", "value": 1.56, "unit": "µg/mL"}, {"measurement": "MIC", "setting": "[3]; [7]", "value": 1.56, "unit": "µg/mL"}, {"measurement": "MIC", "setting": "[3]; [8]", "value": 1.56, "unit": "µg/mL"}, {"measurement": "MIC", "setting": "[3]; [9]", "value": 3.13, "unit": "µg/mL"}, {"measurement": "MIC", "setting": "[3]; [10]", "value": 6.25, "unit": "µg/mL"}, {"measurement": "MIC", "setting": "[3]; LYM broth, pH 4.5", "value": 1.56, "unit": "µg/mL"}, {"measurement": "MIC", "setting": "[3]; LYM broth, pH 5.5", "value": 1.56, "unit": "µg/mL"}, {"measurement": "MIC", "setting": "[3]; LYM broth, pH 6.5", "value": 1.56, "unit": "µg/mL"}, {"measurement": "MIC", "setting": "[3]; [11]", "value": 3.13, "unit": "µg/mL"}, {"measurement": "MIC", "setting": "S. aureus ATCC 33593; [6]", "value": 6.25, "unit": "µg/mL"}, {"measurement": "MIC", "setting": "S. aureus ATCC 33593; LYM broth, 0.5 mM MgCl2", "value": 6.25, "unit": "µg/mL"}, {"measurement": "MIC", "setting": "S. aureus ATCC 33593; LYM broth, 1.5 mM MgCl2", "value": 6.25, "unit": "µg/mL"}, {"measurement": "MIC", "setting": "S. aureus ATCC 33593; LYM broth, 2.5 mM MgCl2", "value": 6.25, "unit": "µg/mL"}, {"measurement": "MIC", "setting": "S. aureus ATCC 33593; [7]", "value": 6.25, "unit": "µg/mL"}, {"measurement": "MIC", "setting": "S. aureus ATCC 33593; [8]", "value": 12.5, "unit": "µg/mL"}, {"measurement": "MIC", "setting": "S. aureus ATCC 33593; [9]", "value": 50, "unit": "µg/mL"}, {"measurement": "MIC", "setting": "S. aureus ATCC 33593; [10]", "value": ">50", "unit": "µg/mL"}, {"measurement": "MIC", "setting": "S. aureus ATCC 33593; LYM broth, pH 4.5", "value": 6.25, "unit": "µg/mL"}, {"measurement": "MIC", "setting": "S. aureus ATCC 33593; LYM broth, pH 5.5", "value": 6.25, "unit": "µg/mL"}, {"measurement": "MIC", "setting": "S. aureus ATCC 33593; LYM broth, pH 6.5", "value": 3.13, "unit": "µg/mL"}, {"measurement": "MIC", "setting": "S. aureus ATCC 33593; [11]", "value": 25, "unit": "µg/mL"}, {"measurement": "MIC", "setting": "S. aureus ATCC 33591; [6]", "value": 6.25, "unit": "µg/mL"}, {"measurement": "MIC", "setting": "S. aureus ATCC 33591; LYM broth, 0.5 mM MgCl2", "value": 6.25, "unit": "µg/mL"}, {"measurement": "MIC", "setting": "S. aureus ATCC 33591; LYM broth, 1.5 mM MgCl2", "value": 6.25, "unit": "µg/mL"}, {"measurement": "MIC", "setting": "S. aureus ATCC 33591; LYM broth, 2.5 mM MgCl2", "value": 6.25, "unit": "µg/mL"}, {"measurement": "MIC", "setting": "S. aureus ATCC 33591; [7]", "value": 6.25, "unit": "µg/mL"}, {"measurement": "MIC", "setting": "S. aureus ATCC 33591; [8]", "value": 12.5, "unit": "µg/mL"}, {"measurement": "MIC", "setting": "S. aureus ATCC 33591; [9]", "value": 50, "unit": "µg/mL"}, {"measurement": "MIC", "setting": "S. aureus ATCC 33591; [10]", "value": 50, "unit": "µg/mL"}, {"measurement": "MIC", "setting": "S. aureus ATCC 33591; LYM broth, pH 4.5", "value": 6.25, "unit": "µg/mL"}, {"measurement": "MIC", "setting": "S. aureus ATCC 33591; LYM broth, pH 5.5", "value": 6.25, "unit": "µg/mL"}, {"measurement": "MIC", "setting": "S. aureus ATCC 33591; LYM broth, pH 6.5", "value": 6.25, "unit": "µg/mL"}, {"measurement": "MIC", "setting": "S. aureus ATCC 33591; [11]", "value": 25, "unit": "µg/mL"}, {"measurement": "MIC", "setting": "[4]; [6]", "value": 6.25, "unit": "µg/mL"}, {"measurement": "MIC", "setting": "[4]; LYM broth, 0.5 mM MgCl2", "value": 6.25, "unit": "µg/mL"}, {"measurement": "MIC", "setting": "[4]; LYM broth, 1.5 mM MgCl2", "value": 12.5, "unit": "µg/mL"}, {"measurement": "MIC", "setting": "[4]; LYM broth, 2.5 mM MgCl2", "value": 12.5, "unit": "µg/mL"}, {"measurement": "MIC", "setting": "[4]; [7]", "value": 12.5, "unit": "µg/mL"}, {"measurement": "MIC", "setting": "[4]; [8]", "value": 25, "unit": "µg/mL"}, {"measurement": "MIC", "setting": "[4]; [9]", "value": ">50", "unit": "µg/mL"}, {"measurement": "MIC", "setting": "[4]; [10]", "value": ">50", "unit": "µg/mL"}, {"measurement": "MIC", "setting": "[4]; LYM broth, pH 4.5", "value": 3.13, "unit": "µg/mL"}, {"measurement": "MIC", "setting": "[4]; LYM broth, pH 5.5", "value": 3.13, "unit": "µg/mL"}, {"measurement": "MIC", "setting": "[4]; LYM broth, pH 6.5", "value": 3.13, "unit": "µg/mL"}, {"measurement": "MIC", "setting": "[4]; [11]", "value": 12.5, "unit": "µg/mL"}, {"measurement": "MIC", "setting": "[5]; [6]", "value": 6.25, "unit": "µg/mL"}, {"measurement": "MIC", "setting": "[5]; LYM broth, 0.5 mM MgCl2", "value": 6.25, "unit": "µg/mL"}, {"measurement": "MIC", "setting": "[5]; LYM broth, 1.5 mM MgCl2", "value": 6.25, "unit": "µg/mL"}, {"measurement": "MIC", "setting": "[5]; LYM broth, 2.5 mM MgCl2", "value": 6.25, "unit": "µg/mL"}, {"measurement": "MIC", "setting": "[5]; [7]", "value": 6.25, "unit": "µg/mL"}, {"measurement": "MIC", "setting": "[5]; [8]", "value": 25, "unit": "µg/mL"}, {"measurement": "MIC", "setting": "[5]; [9]", "value": ">50", "unit": "µg/mL"}, {"measurement": "MIC", "setting": "[5]; [10]", "value": ">50", "unit": "µg/mL"}, {"measurement": "MIC", "setting": "[5]; LYM broth, pH 4.5", "value": 3.13, "unit": "µg/mL"}, {"measurement": "MIC", "setting": "[5]; LYM broth, pH 5.5", "value": 3.13, "unit": "µg/mL"}, {"measurement": "MIC", "setting": "[5]; LYM broth, pH 6.5", "value": 3.13, "unit": "µg/mL"}, {"measurement": "MIC", "setting": "[5]; [11]", "value": 25, "unit": "µg/mL"}]}
